Laboratory results as given in US20230355606A1, “LONG-ACTING FORMULATIONS” (Janssen Pharmaceutica NV, priority 2020, published 2023).
Read-outs that look alike come from different tables or passages of the source.

How the values were obtained:
M. tuberculosis H37Rv = type: in vivo, Mycobacterium tuberculosis; conditions: for reduction of mean CFU count compared to untreated mice: R10 (5/7); for Mean (SD) log10 M. tuberculosis CFU/lung: rifampin 10 mg/kg, 5/7, gavage, mice
Mycobacterium leprae = conditions: M. lepra, mice; cited from earlier work
M. tuberculosis = conditions: mice; cited from earlier work
[1] = test system: mycobacterial ATP synthase versus eukaryotic mitochondrial ATP synthase; conditions: cited from earlier work

SMILES | reduction of mean CFU count compared to untreated mice (M. tuberculosis H37Rv; after 4 weeks of treatment) | reduction of mean CFU count compared to untreated mice (M. tuberculosis H37Rv; after 8 weeks of treatment) | reduction of mean CFU count compared to untreated mice (M. tuberculosis H37Rv; after 12 weeks of treatment) [log10 CFU/lung] | Mean (SD) log10 M. tuberculosis CFU/lung (M. tuberculosis H37Rv; Week 4) | Mean (SD) log10 M. tuberculosis CFU/lung (M. tuberculosis H37Rv; Week 8) | Mean (SD) log10 M. tuberculosis CFU/lung (M. tuberculosis H37Rv; Week 12) | minimal dose killing 99% of bacilli (Mycobacterium leprae) [mg/kg/wk] | minimal dose killing 99% of bacilli (M. tuberculosis) [mg/kg/wk] | selectivity index [1]
CO[C@H]1/C=C/O[C@@]2(C)Oc3c(C)c(O)c4c(O)c(c(/C=N/N5CCN(C)CC5)c(O)c4c3C2=O)NC(=O)/C(C)=C\C=C\[C@H](C)[C@H](O)[C@@H](C)[C@@H](O)[C@@H](C)[C@H](OC(C)=O)[C@@H]1C [R, rifampin] | approximately 1 log10 CFU/lung | about 2 log10 CFU/lung | ~3 | 3.39 (0.46) log10 CFU/lung | 2.74 (0.62) log10 CFU/lung | 1.27 (0.85) log10 CFU/lung | – | – | –
COc1nc2ccc(Br)cc2cc1[C@@H](c1ccccc1)[C@@](O)(CCN(C)C)c1cccc2ccccc12 [bedaquiline] | – | – | – | – | – | – | < 5.0 | 30 | more than 20000
